Source: US20250032590A1, “PARATHYROID HORMONE COMPOUNDS IN THE TREATMENT OF HYPOPARATHYROIDISM” (AMOLYT PHARMA, priority 2023, published 2025)
“Also recorded” adds a separate entry of the source. No end group written: not given here.

Tests used:
Cynomolgus monkeys [1] = assay: 39-week daily sc study in non-human primates: bone biomarkers, BMD (qCT), histopathology (Example 8); type: in vivo, cynomolgus monkey
Experimental: (§1) To further examine the effect of chronic AZP-3601 treatment on bone, both 13-week and 39-week studies were conducted in non-human primates (NHP), which are considered a relevant species with regard to AZP-3601 effects on serum calcium. Groups of 3 or 4 Cynomolgus monkeys of each sex were given daily subcutaneous injections of either vehicle or AZP-3601 at doses of 1, 2.5 or 10 μg/kg for either 13 or 39 weeks, as outlined in Table 2.
• Serum bone biomarkers at baseline and weeks 4, 8, 13, 26 and 39; • In-life BMD by quantitative computed tomography (qCT) at baseline and weeks 26 and 39; • Histopathological examination of bone at week 39.
(§2) At the end of the 13-week study, right femur, right tibia and the L4 lumbar vertebra were collected from 3 animals/group/sex and bone mineral density (BMD) was measured by dual-energy X-ray absorptiometry. The left femur was submitted to histopathological examination. […] In the 39-week study, blood samples were collected from 4 animals/group/sex prior to and during weeks 4, 8, 13, 26 and 39 of treatment for measurement of bone biomarkers. In-life BMD of left femur, left tibia and L4 lumbar vertebra was measured by quantitative computed tomography (qCT) prior to and during weeks 26 and 39 of treatment (FIGS. 9A, 9B, 9C, 9D, 9E and 9F). At the end of the treatment period, femurs were processed for histopathological examination.
Prior to treatment, BMD was homogeneous among all groups for all the three bone sites examined.

TPTX rats [2] = assay: Serum calcium and phosphate, 28-day daily sc dosing in HP TPTX rat model (Example 2); type: in vivo; settings: 7.7 μg/kg/day
Experimental: Thyroid-parathyroidectomized, or TPTX, rats were treated with daily subcutaneous injection of AZP-3601 at doses ranging from 3.8 μg/kg/day to 30.7 μg/kg/day. Treatment was continued for 28 days. […] The increase in calcium accumulated over time (over the first 15 to 21 days), but became more constant thereafter, indicating the development of a steady-state effect (FIG. 2). Due to the cumulative effect, lower doses of AZP-3601 were required to eventually increase blood calcium levels into the normal range as compared to the dose required with a single injection.

non-human primates = settings: 10.7 μg/kg or 42.7 μg/kg; cited from earlier work
TPTX rats [3] = assay: Urinary calcium, repeated daily sc dosing in HP TPTX rat model (Example 4); type: in vivo; settings: 30.7 μg/kg/day
Experimental: To examine the effect of repeated dosing with AZP-3601 on urinary calcium levels, TPTX rats were treated with daily subcutaneous injection of AZP-3601 with doses ranging from 3.8 to 30.7 μg/kg/day. As additional controls, separate groups of TPTX rats received daily injections of either natural PTH (1-84) or the vehicle, and a group of normal (with intact thyroid and parathyroid glands, or sham) rats were injected with vehicle. […] The observed increase in urinary calcium excretion with the high dose was a normal kidney response to clear excess blood calcium (FIG. 4).

PTX mice = assay: Serum calcium after single dosing in HP PTX mouse model (Example 1); type: in vivo; settings: compared with PTH (1-34)
Text: In FIG. 1, the black line indicates the impact of PTX in mice, resulting in serum calcium levels well below normal levels.

[4] = Plasma detectability after single injection in cynomolgus monkeys; type: in vivo, cynomolgus monkey
Experimental: To further examine how the potent and sustained biological activity induced by AZP-3601 could translate into potential clinical benefit for […] patients, its activity was examined in normal cynomolgus monkeys, a species much closer to humans and the most relevant for first in human dose-selection. Single injections of AZP-3601 were administered to normal cynomolgus monkeys. […] The dissociation between pharmacokinetic profile and pharmacodynamic effect is due to the short circulating half-life of AZP-3601 as opposed to the prolonged signaling caused by AZP-3601's potent interaction with the R^0 conformation of the PTH1 receptor.

[5] = test system: subjects with hypoparathyroidism (HP); assay: Open-label multiple ascending dose study plus 2-month extension in subjects with hypoparathyroidism (Examples 10, 11); type: in vivo, human
Text: Part C: Part C of the assessment was an open-label multiple ascending dose (MAD) study in male or female subjects with hypoparathyroidism (HP) who are on standard or care treatment (treatment with oral calcium and active vitamin D) to evaluate the safety and tolerability, PK, and PD of AZP-3601. Up to 2 cohorts of approximately 12 patients each were planned for this part of the study. Prior to the treatment period, there was an optimization period of up to 8 weeks during which doses of oral calcium and active vitamin D were adjusted to achieve a baseline target range of albumin-corrected serum calcium (7.8 to 9.0 mg/dL, ie, 1.95 to 2.25 mmol/L) and therefore ensuring a close baseline for all patients. During this optimization period, any serum 25-hydroxy vitamin D (native vitamin D) and/or magnesium deficiencies were corrected. During the treatment period, patients in Part C received AZP-3601 for 28 days as daily sc abdominal injections (with rotation of injection sites every dosing day). Doses of oral calcium and active vitamin D supplements were reduced during the initial 14 days of treatment while maintaining albumin-corrected serum calcium in the target range (7.8 to 9.0 mg/dL, ie, 1.95 to 2.25 mmol/L). Reductions of both oral calcium and active vitamin D supplements were performed using a staged approach until the active vitamin D dose were eliminated and the oral calcium dose were reduced to or below 500 mg/day. Based on animal data, serum calcium was expected to increase progressively following repeated administration of AZP-3601 and PD steady state was expected to be observed within the first 5 days of dosing. Staggered reductions of doses of oral calcium and active vitamin D supplements were therefore performed at near-steady state based on the predose albumin-corrected serum calcium value. The following treatments are administered in Part C in an open-label fashion: • Cohort C1: multiple sc doses of 20 mg AZP-3601 (n=12) qd from Day 1 to Day 28 (dose increase of AZP-3601 to 40 mg was allowed from Day 14 onwards) • Cohort C2: multiple sc doses of a fixed dose of 10 mg AZP-3601 (n=12) qd from Day 1 to Day 28 (dose of AZP-3601 may be increased at a fixed dose of 20 mg from Day 14 onwards)
During the extension phase, patients had their AZP-3601 dose increased in increments of 10 mg to a maximum dose of 60 mg (Cohort 1) and of 80 mg (Cohort 2).
The extension phase started immediately following Day 28 visit of the Main treatment period. Patients received AZP-3601 for 56 days (2 months) as daily sc injections from Day 29 onwards (with rotation of injection sites each day of administration). The goal was to optimize AZP-3601 dosing across a dose range while doses of oral calcium and active vitamin D were as low as safely possible and albumin-corrected serum calcium was maintained within the target range of 7.8 to 9.0 mg/dL (1.95 to 2.25 mmol/L). For patients who were taking minimal or no supplemental calcium (≤500 mg/day) and no vitamin D on Day 28, the AZP-3601 dose from the previous 14 days of treatment (Part C, Main Treatment Period) was maintained and adjusted when needed during the Extension Phase. For patients who were still taking active vitamin D and/or more than 500 mg/day of oral calcium on Day 28, a progressive reduction of supplements was carried out while increasing the dose of AZP-3601. […]

Cynomolgus monkeys [6] = assay: 13-week daily sc study in non-human primates: ex-vivo BMD (DXA), bone histopathology (Example 8); set-up: species or system cynomolgus monkey; settings: Cynomolgus monkeys, 1, 2.5 or 10 μg/kg daily sc, 13 weeks
Experimental: as §1
• Ex-vivo bone mineral density (BMD) by dual-energy X-ray absorptiometry (DXA) at week 13; • Histopathological examination of bone at week 13.
as §2

[7] = Cynomolgus monkeys, 1, 2.5 or 10 μg/kg daily sc, weeks 4 to 39
[8] = HP subjects of both cohorts, 84 days
[9] = HP subjects, various bone sites, including patients with osteopenia

- histological examination of the femur (Cynomolgus monkeys [1]; Cynomolgus monkeys, week 39): no noteworthy findings
- serum calcium at the highest dose (TPTX rats [3]): induced overt hypercalcemia
- half-life (PTX mice): equally short half-life as PTH (1-34)
- bone mineral density (BMD) [5, 8]: remains stable
- trabecular bone score (TBS) [5, 8]: remains stable
- T-score [5, 9]: remain stable
- Z-score [5, 9]: remain stable
Sequence: AVAEIQLMHQRAKWIQDARRRAFLHKLIAEIHTAEI [AZP-3601, M-PTH(1-14)/PTHrP(15-36)]
- anabolic bone biomarker P1NP (Cynomolgus monkeys [1]; [7]): no treatment-related changes; also recorded: no significant effect on either anabolic or catabolic bone biomarkers
- catabolic bone biomarker CTx (Cynomolgus monkeys [1]; [7]): no treatment-related changes; also recorded: no significant effect on either anabolic or catabolic bone biomarkers
- in-life BMD of femur, tibia and L4 lumbar vertebra by qCT (Cynomolgus monkeys [1]; Cynomolgus monkeys, 39-week study, versus pre-treatment values): no statistically significant changes in BMD
- change in bone at the optimal dose (TPTX rats [2]): without producing any significant change in bone
- serum calcium at highest dose levels (non-human primates): induced significant hypercalcemia
- detectability in plasma post-dosing [4]: detectable in plasma for only up to one hour post-dosing
- mean bone markers relative to upper limit of normal ([5]; HP subjects, 84 days): never increased either mean bone marker above the upper limit of normal level
- BMD of femur, tibia and L4 lumbar vertebra by DXA (Cynomolgus monkeys [6]): no evidence of any treatment-related effect
- histopathological examination of femur (Cynomolgus monkeys [6]): no evidence of any treatment-related effect
